This note sets out measurements from ChEMBL document CHEMBL3414446, “Neoechinulin B and its analogues as potential entry inhibitors of influenza viruses, targeting viral hemagglutinin” (Eur J Med Chem, 2015).

As a reminder, the IC50 is the concentration needed to halve the response being measured. Read a high IC50 as a need for much substance.

In assay [1] the test system is Influenza A virus. Kind of assay: Antiviral activity against amantadine and ribavirin-resistant influenza A virus A/HuNan-huHui/1222/2010 (H3N2) strain. It is filed as functional, organism-based.
Assay [2] relates to Influenza A virus. The assay is described as follows: Antiviral activity against OSV-resistant influenza A virus A/LiaoNing-ZhenXing/1109/2010 (H1N1) strain. It is filed as functional, organism-based.

With `C=CC(C)(C)c1[nH]c2ccccc2c1/C=c1\[nH]c(=O)c(=C)[nH]c1=O` [NEOECHINULIN B], the IC50 with Influenza A virus [1] came to 22.2 µM; in the assay on Influenza A virus [2] it was 16.9 µM.
On the same counts, the results for `CCOC(=O)C1=C[C@@H](OC(CC)CC)[C@H](NC(C)=O)[C@@H](N)C1` [OSELTAMIVIR] are over 20.5 µM and over 200 µM.
Consider `NC(=O)c1ncn([C@@H]2O[C@H](CO)[C@@H](O)[C@H]2O)n1` [RIBAVIRIN], for which the IC50 is over 150 µM in the assay with Influenza A virus [1] and 1.05 µM with Influenza A virus [2].
Consider `NC12CC3CC(CC(C3)C1)C2` [AMANTADINE], for which the IC50 was over 200 µM with Influenza A virus [1] and 0.82 µM with Influenza A virus [2].
